Results on eight compounds are retold here after PubChem BioAssay (NCI).

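Where inhibition never reached the appropriate level, the endpoint shown equals the highest concentration tested. Otherwise, values were interpolated linearly from a five-concentration, 48-hour dose response in 96-well plates. At the TGI there is no net growth.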 A value given as a limit tells only on which side of the number the result lay.

Some test systems named below: SK-MEL-5 melanoma; T-47D breast; OVCAR-8 ovarian; OVCAR-5 ovarian; SNB-19 CNS; KM12 colon; SK-MEL-28 melanoma; NCI-H23 lung; ACHN renal; M14 melanoma; HCT-15 colon; 786-0 renal; OVCAR-3 ovarian; SK-OV-3 ovarian; CCRF-CEM leukemia; NCI-H522 lung; HOP-92 NSCLC; SF-268 CNS; SF-539 CNS.
Holding throughout (assay): NCI anticancer screen, dose series, 48 h

For `OCC1C(O)C(O)[C@@H]2SCCN12` (stereo not given in full), the TGI in the assay with SK-MEL-5 melanoma, with T-47D breast, with OVCAR-8 ovarian, with OVCAR-5 ovarian, with SNB-19 CNS and in the assay with KM12 colon was over 100 µM throughout. Moreover, the TGI with SK-MEL-28 melanoma, in the assay with NCI-H23 lung, with ACHN renal, with M14 melanoma, with HCT-15 colon and with 786-0 renal was over 100 µM throughout. The TGI with OVCAR-3 ovarian, with SK-OV-3 ovarian, in the assay on CCRF-CEM leukemia, in the assay on NCI-H522 lung, in the assay on HOP-92 NSCLC and in the assay on SF-268 CNS was over 100 µM each time.
In the case of `CCOP(=O)(OCC)/C(=C/c1ccccc1)CC(C)=O`, the TGI in the assay with SK-MEL-5 melanoma, in the assay on T-47D breast, in the assay on OVCAR-8 ovarian, in the assay on OVCAR-5 ovarian, in the assay with SNB-19 CNS and with KM12 colon was over 100 µM in each case. Besides, the TGI with SK-MEL-28 melanoma, in the assay with NCI-H23 lung, in the assay with ACHN renal, in the assay on M14 melanoma, with SF-539 CNS and in the assay with HCT-15 colon was over 100 µM throughout. Moreover, the TGI with 786-0 renal, with OVCAR-3 ovarian, in the assay on SK-OV-3 ovarian, in the assay with CCRF-CEM leukemia, in the assay on HOP-92 NSCLC and with SF-268 CNS was over 100 µM throughout.
For the compound `Fc1ccc(C2(CCCN3CCc4[nH]c5cc(F)ccc5c4C3)OCCO2)cc1`, the TGI is 23.5 µM in the assay on SK-MEL-5 melanoma; 30.4 µM in the assay on T-47D breast; 33.9 µM in the assay with OVCAR-8 ovarian; 20.5 µM with OVCAR-5 ovarian; 23.3 µM in the assay on SNB-19 CNS; 29.8 µM with KM12 colon. Also, the TGI with SK-MEL-28 melanoma amounted to 25.6 µM; with NCI-H23 lung it was 31.7 µM; in the assay on ACHN renal, 23.5 µM; in the assay with M14 melanoma, 7.15 µM; in the assay with SF-539 CNS, 25.5 µM; with HCT-15 colon, 31 µM. In addition, the TGI turned out to be 27.1 µM with 786-0 renal; 26.7 µM with SK-OV-3 ovarian; 31.4 µM in the assay with CCRF-CEM leukemia; 10.2 µM with HOP-92 NSCLC; 30.9 µM in the assay with SF-268 CNS.
In the case of `COc1cc(/C=C2\N=C(c3ccccc3)N(c3nc4c(Cl)cc(Cl)cc4s3)C2=O)ccc1O`, the TGI in the assay on SK-MEL-5 melanoma was over 100 µM; in the assay on T-47D breast, 72.6 µM; in the assay on OVCAR-8 ovarian it was over 100 µM; in the assay on OVCAR-5 ovarian, over 100 µM; in the assay on SNB-19 CNS, over 100 µM; in the assay with KM12 colon, over 100 µM. Moreover, the TGI in the assay on SK-MEL-28 melanoma was over 100 µM; in the assay with ACHN renal, 82.2 µM; in the assay with M14 melanoma, over 100 µM; in the assay with SF-539 CNS, over 100 µM; with HCT-15 colon, over 100 µM; in the assay on 786-0 renal, over 100 µM. The TGI is 91.9 µM with OVCAR-3 ovarian; over 100 µM with SK-OV-3 ovarian; 30.4 µM with CCRF-CEM leukemia; 68 µM in the assay with HOP-92 NSCLC; over 100 µM with SF-268 CNS.
For the compound `CN(C)c1ccc(/C=C2\C[C@H]3[C@@H]4CCC5=CC(=O)CC[C@]5(C)[C@H]4CC[C@]3(C)C2=O)cc1`, the TGI was 32.3 µM in the assay with SK-MEL-5 melanoma; over 100 µM with T-47D breast; over 100 µM in the assay with OVCAR-8 ovarian; over 100 µM in the assay with OVCAR-5 ovarian; over 100 µM in the assay with SNB-19 CNS; over 100 µM in the assay on KM12 colon. For the same compound, the TGI in the assay on SK-MEL-28 melanoma, in the assay on NCI-H23 lung, with ACHN renal, with M14 melanoma, in the assay on SF-539 CNS and in the assay with HCT-15 colon was over 100 µM throughout. Also, the TGI with 786-0 renal was over 100 µM; with OVCAR-3 ovarian, over 100 µM; with SK-OV-3 ovarian it was over 100 µM; in the assay with HOP-92 NSCLC it was 66.1 µM; in the assay on SF-268 CNS, over 100 µM.
On to `O=C1OC(C2Cc3cc4c(cc3C2=O)CCC4)c2ccccc21` (stereo not given), for which the TGI in the assay with SK-MEL-5 melanoma, with T-47D breast, with OVCAR-8 ovarian, with OVCAR-5 ovarian, with SNB-19 CNS and in the assay on KM12 colon was over 100 µM each time. In addition, the TGI was over 100 µM with SK-MEL-28 melanoma; over 100 µM in the assay with NCI-H23 lung; over 100 µM in the assay on ACHN renal; over 100 µM in the assay on M14 melanoma; 80.4 µM in the assay on SF-539 CNS; over 100 µM in the assay with HCT-15 colon. For the same compound, the TGI in the assay on 786-0 renal, in the assay with OVCAR-3 ovarian, in the assay with SK-OV-3 ovarian, in the assay on CCRF-CEM leukemia, with NCI-H522 lung and with SF-268 CNS was over 100 µM each time.
On to `Brc1ccc(-c2ccc(-c3ccc(-c4ccc(Br)s4)s3)s2)s1`, for which the TGI in the assay with SK-MEL-5 melanoma, in the assay on T-47D breast, in the assay with OVCAR-8 ovarian, in the assay with OVCAR-5 ovarian, in the assay with KM12 colon and with SK-MEL-28 melanoma was over 100 µM throughout. The TGI in the assay on NCI-H23 lung, in the assay on ACHN renal, with M14 melanoma, in the assay on SF-539 CNS, in the assay on HCT-15 colon and with 786-0 renal was over 100 µM each time. Besides, the TGI with OVCAR-3 ovarian, with SK-OV-3 ovarian, in the assay on CCRF-CEM leukemia, in the assay with HOP-92 NSCLC and with SF-268 CNS was over 100 µM in each case.
Turning to `CC1=C(C(=O)OCCc2ccc([N+](=O)[O-])cc2)C(c2ccccc2C(F)(F)F)C(C(=O)OC(C)C)=C(C)N1` (stereo not given), the TGI in the assay on SK-MEL-5 melanoma is 3.09 µM; with T-47D breast, over 100 µM; with OVCAR-8 ovarian it was over 100 µM; in the assay with OVCAR-5 ovarian, over 100 µM; with SNB-19 CNS, over 100 µM; with KM12 colon it was 31 µM. The TGI in the assay with SK-MEL-28 melanoma is over 100 µM; in the assay with NCI-H23 lung it was over 100 µM; in the assay with ACHN renal, over 100 µM; in the assay with M14 melanoma, 16.2 µM; in the assay with SF-539 CNS it was over 100 µM; with HCT-15 colon, over 100 µM. For the same compound, the TGI in the assay with 786-0 renal is over 100 µM; in the assay with OVCAR-3 ovarian, over 100 µM; in the assay on SK-OV-3 ovarian it was 30.6 µM; in the assay with CCRF-CEM leukemia, over 100 µM; with NCI-H522 lung, 7.5 µM; with SF-268 CNS, over 100 µM.
